Structures are written as SMILES.

This experiment concerns the target T1, recombinant human AKR1C3 (Aldo-keto reductase family 1 member C3) (Homo sapiens, UniProt P42330).
T1 construct: GST (cleaved yes); made in house; host or cells: E. coli
T1 sequence (P42330 1-323): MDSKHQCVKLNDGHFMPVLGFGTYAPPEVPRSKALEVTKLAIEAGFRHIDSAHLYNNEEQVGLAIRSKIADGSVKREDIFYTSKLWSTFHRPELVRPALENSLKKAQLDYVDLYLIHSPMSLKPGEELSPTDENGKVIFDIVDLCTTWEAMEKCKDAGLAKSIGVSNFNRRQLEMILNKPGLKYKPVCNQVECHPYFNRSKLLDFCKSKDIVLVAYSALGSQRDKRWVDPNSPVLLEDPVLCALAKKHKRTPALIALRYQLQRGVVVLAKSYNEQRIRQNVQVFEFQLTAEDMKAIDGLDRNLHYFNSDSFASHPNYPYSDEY
Briefly: In Vitro Assay 1: AKR1C3-inhibitory activity (Coumberone to Coumberol fluorescence assay). The experiment is classed as biochemical. The following applies: recombinant enzyme, Coumberone 0.3 μM, NADPH 10 μM, 15 min pre-incubation, 4-parameter fit; average or median values. The protocol:
In Vitro Assay 1: AKR1C3-Inhibitory Activity
The AKR1C3-inhibitory activity of the substances of the present invention was measured in the AKR1C3 assay described in the paragraphs below.
Essentially, the enzyme activity is measured by quantification of the Coumberol from Coumberone (Halim, M., Yee, D. J., and Sames, D., J. AM. CHEM. SOC. 130, 14123-14128 (2008) and Yee, D. J., Balsanek, V., Bauman, D. R., Penning, T. M., and Sames, D., Proc. Natl. Acad. Sci. USA 103, 13304-13309 (2006)). In this test, the increase of the highly fluorescent Coumberol by NADPH- (nicotinamide adenine dinucleotide phosphate)-dependent reduction of the non-fluorescent Coumberone by AKR1C3 can be determined.
The enzyme used was recombinant human AKR1C3 (Aldo-keto reductase family 1 member C3) (GenBank Accession No. NM_003739). This was expressed in E. coli as GST (glutathione S transferase) fusion protein and purified by glutathione Sepharose affinity chromatography. The GST was removed by digestion with thrombin and subsequent size exclusion chromatography (Dufort, I., Rheault, P., Huang, X F., Soucy, P., and Luu-The, V., Endocrinology 140, 568-574 (1999)).
For the assay, 50 nl of a 100-fold concentrated solution of the test substance in DMSO were pipetted into a black low-volume 384-well microtiter plate (Greiner Bio-One, Frickenhausen, Germany), 2.5 μl of a solution of AKR1C3 in assay buffer [50 mM potassium phosphate buffer pH 7, 1 mM DTT, 0.0022% (w/v) Pluronic F-127, 0.01% BSA (w/v) and protease inhibitor cocktail (Complete, EDTA-free Protease Inhibitor Cocktail from Roche)] were added and the mixture was incubated for 15 min to allow pre-binding of the substances to the enzyme prior to the enzyme reaction. The enzyme reaction was then started by addition of 2.5 μl of a solution of NADPH (20 μM→final concentration in 5 μl of assay volume is 10 μM) and Coumberone (0.6 μM→final concentration in 5 μl of assay volume is 0.3 μM) in assay buffer, and the resulting mixture was incubated at […] for the reaction time of typically 90 min. The concentration of the AKR1C3 and the reaction time was adapted to the respective activity of the enzyme preparation and adjusted such that the assay was carried out in the linear range.
Typical AKR1C3 concentrations were in the region of 1 nM. The reaction was stopped by addition of 2.5 μl of a stop solution consisting of the inhibitor EM-1404 [F. Labrie et al. U.S. Pat. No. 6,541,463, 2003] (3 μM→final concentration in 7.5 μl of assay volume is 1 μM). The fluorescence of the Coumberole was then measured at 520 nm (excitation at 380 nm) using a suitable measuring instrument (Pherastar from BMG Labtechnologies). The intensity of the fluorescence was used as a measure of the amount of Coumberole formed and thus of the enzyme activity of AKR1C3. The data were normalized (enzyme reaction without inhibitor—0% inhibition; all other assay components, but no enzyme=100% inhibition).
As to `O=C(c1cnn[nH]1)N1C[C@@H]2[C@H](C1)[C@H]1CC[C@@H]2N1S(=O)(=O)c1ccc([N+](=O)[O-])cc1` [Example 32, {(3aR,4R,7S,7aS)-8-[(4-nitrophenyl)sulfonyl]octahydro-2H-4,7-epiminoisoindol-2-yl}(1H-1,2,3-triazol-5-yl)methanone], the half-maximal inhibitory concentration (IC50) came to 420 nM.

Consider `O=C(c1c[nH]nn1)N1[C@@H]2CC[C@H]1[C@H]1CN(S(=O)(=O)c3cccc(S(F)(F)(F)(F)F)c3)C[C@H]12` [Example 10, [(3aR,4S,7R,7aS)-2-{[3-(pentafluoro-λ^6-sulfanyl)phenyl]sulfonyl}octahydro-1H-4,7-epiminoisoindol-8-yl](1H-1,2,3-triazol-4-yl)methanone], for which the IC50 was 121 nM.

As to `Cc1cccc(S(=O)(=O)N2[C@@H]3CC[C@H]2[C@H]2CN(C(=O)c4cnn[nH]4)C[C@H]23)c1` [Example 23, {(3aR,4S,7R,7aS)-8-[(3-methylphenyl)sulfonyl]octahydro-2H-4,7-epiminoisoindol-2-yl}(1H-1,2,3-triazol-5-yl)methanone], the 50% inhibitory concentration (IC50) came to 39 nM.

Regarding `N#Cc1cccc(S(=O)(=O)N2[C@@H]3CC[C@H]2[C@H]2CN(C(=O)c4cnn[nH]4)C[C@H]23)c1` [Example 26, 3-{[(3aR,4S,7R,7aS)-2-(1H-1,2,3-triazol-5-ylcarbonyl)octahydro-1H-4,7-epiminoisoindol-8-yl]sulfonyl}benzonitrile], the IC50 was found to be 322 nM.

As for `O=C(c1cnn[nH]1)N1C[C@@H]2[C@H](C1)[C@H]1CC[C@@H]2N1S(=O)(=O)c1cccc2c1OCC2` [Example 62, [(3aR,4R,7S,7aS)-8-(2,3-dihydro-1-benzofuran-7-ylsulfonyl)octahydro-2H-4,7-epiminoisoindol-2-yl](1H-1,2,3-triazol-5-yl)methanone], the IC50 is 78 nM.

Take `COC(=O)c1cccc(S(=O)(=O)N2[C@@H]3CC[C@H]2[C@@H]2CN(C(=O)c4cnn[nH]4)C[C@@H]23)c1` [Example 56, methyl 3-{[(3aR,4R,7S,7aS)-2-(1H-1,2,3-triazol-5-ylcarbonyl)octahydro-1H-4,7-epiminoisoindol-8-yl]sulfonyl}benzoate]: the IC50 is 798 nM.

For `Cc1ccc(Cl)cc1S(=O)(=O)N1[C@@H]2CC[C@H]1[C@@H]1CN(C(=O)c3cnn[nH]3)C[C@@H]12` [Example 53, {(3aR,4R,7S,7aS)-8-[(5-chloro-2-methylphenyl)sulfonyl]octahydro-2H-4,7-epiminoisoindol-2-yl}(1H-1,2,3-triazol-5-yl)methanone], the IC50 came to 2 nM.

Turning to `N#Cc1ccc(S(=O)(=O)N2[C@@H]3CC[C@H]2[C@@H]2CN(C(=O)c4cnn[nH]4)C[C@@H]23)cc1` [Example 43, 4-{[(3aR,4R,7S,7aS)-2-(1H-1,2,3-triazol-5-ylcarbonyl)octahydro-1H-4,7-epiminoisoindol-8-yl]sulfonyl}benzonitrile], the half-inhibitory concentration (IC50) stood at 855 nM.

For the molecule `O=C(c1cnn[nH]1)N1C[C@@H]2[C@H](C1)[C@H]1CC[C@@H]2N1S(=O)(=O)c1ccc(F)c(F)c1F` [Example 49, 1H-1,2,3-triazol-5-yl{(3aR,4R,7S,7aS)-8-[(2,3,4-trifluorophenyl)sulfonyl]octahydro-2H-4,7-epiminoisoindol-2-yl}methanone], the 50% inhibitory concentration (IC50) was determined as 148 nM.

As for `O=C(c1cnn[nH]1)N1[C@@H]2CC[C@H]1[C@H]1CN(S(=O)(=O)c3cccc(F)c3)C[C@H]12` [Example 27, {(3aR,4S,7R,7aS)-2-[(3-fluorophenyl)sulfonyl]octahydro-1H-4,7-epiminoisoindol-8-yl}(1H-1,2,3-triazol-5-yl)methanone], the IC50 was determined as 2 nM.

Consider `O=C(c1cnn[nH]1)N1C[C@@H]2[C@H](C1)[C@H]1CC[C@@H]2N1S(=O)(=O)c1cc(Cl)ccc1F` [Example 51, {(3aR,4R,7S,7aS)-8-[(5-chloro-2-fluorophenyl)sulfonyl]octahydro-2H-4,7-epiminoisoindol-2-yl}(1H-1,2,3-triazol-5-yl)methanone], for which the 50% inhibitory concentration (IC50) turned out to be 3 nM.

One may read the IC50 as the concentration at which inhibition is half-maximal.

(Values after US20200085791A1, “[(PHENYLSULFONYL)OCTAHYDRO-EPIMINOISOINDOL-YL](1H-1,2,3-TRIAZOL-5-YL)METHANONES” (Bayer Pharma Aktiengesellschaft, priority 2016, published 2020).)
